Test results from publication PMC6178183, “Development of a HPLC-MS/MS Method to Determine 11 Bioactive Compounds in Tongmai Yangxin Pill and Application to a Pharmacokinetic Study in Rats” (Evidence-based Complementary and Alternative Medicine : eCAM, 2018).
Several values for one entry are separate records, joined by “and”; a condition that tells them apart may be missing. Identical values can stand only once.

Tests used:
[1] = system: human umbilical vein endothelial cells; parameters: method as in doi:10.1039/C6RA19212B; details: human umbilical vein endothelial cells in zebrafish; cited from earlier work
[2] = Pharmacokinetic study in rats after oral administration of TMYX extract (HPLC-MS/MS of plasma); type: in vivo, Sprague–Dawley rats; details: rat plasma; for AUC(0-inf) / half-life / AUC / k el: male, Sprague-Dawley; for AUC(0-inf) / half-life / AUC / k el / C max1 / T max1 / C max2 / T max2: oral TMYX extract 8.3 g/kg single dose; for AUC(0-inf) / half-life / AUC / k el / C max1 / C max2 / T max2: n=6; for AUC: read-out: AUC (0-tn); for k el: read-out: K e (converted); for peaks in the mean plasma concentration-time profile: oral TMYX extract 8.3 g/kg; for T max1: n=6, mean ± SD; for C max2 / T max2: second peak
Protocol: The HPLC-MS/MS system consists of an Agilent 1200 high-performance liquid chromatography coupled with an Aglient 6430 series triple quadrupole mass spectrometer with an electrospray ionization (ESI) source. The chromatographic separation was achieved on a CORTECS C18 column (4.6 mm × 150 mm, 2.7 μm), and the column temperature was kept at 30°C. Mobile phases which consisted of 0.1% formic acid in water (A) and acetonitrile (B) were used in the following gradient elution method: 0-10 min, 10%-85% B; 10-13 min, 85%-95% B; 13-19 min, 95%-95% B. The flow rate was set at 0.3 mL/min, and the injection volume was 10 μL. All data were analyzed by Mass Hunter workstation software (Agilent Technologies, USA).
The mass spectrometer was carried out in both positive and negative ionization multiple-reaction monitoring (MRM) mode. The source parameters were as follows: the capillary voltage set at 300 V for positive ionization mode and -300 V for negative ionization mode, the drying gas temperature was 320°C, the flow was 11 L/min, and nebulizing gas pressure was 30 psi.
The plasma (100 μL) was spiked with 20 μL of methanol, 20 μL of the IS (icariin, 1 μg/mL), and 20 μL of formic acid and then vortex-mixed. The mixture was extracted with 800 μL of ethyl acetate by vortex mixing for 5 min at room temperature. After centrifugation at 14,000 rpm for 10 min, the supernatant was collected to a clean tube and evaporated to dryness under a nitrogen stream. The residue was reconstituted in 50 μL of 50% methanol, vortexed for 5 min, and centrifuged at 14,000 rpm for 10 min. Finally, 10 μL supernatant was injected into the LC-MS/MS system for analysis.
Male Sprague–Dawley rats (230-250 g) were obtained from Beijing HFK Experimental Animal Technology Co., Ltd. The rats were maintained under the control environmental conditions and they fasted for 12 h with free access to water before the experiments. TMYX extracts were dissolved in CMC-Na and administrated orally to rats at 8.3 g/kg. The blood samples (200 μL) were collected from the rat fossa orbitalis vein at 0, 0.03, 0.083, 0.17, 0.25, 0.5, 1, 2, 4, 6, 8, 10, 12, 24, 36, and 48 h after oral administration to heparinized tubes. And then the blood samples were centrifuged at 7,000 rpm for 10 min to get the plasma sample immediately. Finally, the plasma obtained was stored at −70°C until analysis. Pharmacokinetic parameters were calculated by the computer program “Drug and Statistics 2.0” (DAS 2.0) (Medical College of Wannan, China).

[3] = Stability of analytes in rat plasma QC samples under storage conditions; type: in vitro ADME; details: n=6, gallic acid, ononin, schisandrin, stilbene glycoside, liquiritigenin, rhein, verbascoside; for Measured Concentration, auto-sampler for 12 h: prepared rat plasma samples; for Measured Concentration, -70°C for 14 days / Measured Concentration, room temperature for 6 h / Measured Concentration, three freeze-thaw cycles: rat plasma
Protocol: Quality control (QC) samples at three concentrations (low, medium, and high concentration) were made up of appropriate mixed standard solutions with blank blood sample as calibration solutions to meet the required concentrations. All the solutions were kept at 4°C.
The stability of analytes in plasma samples was determined by analyzing QC samples of three concentration levels at different conditions: stored at autosampler for 12 h, at room temperature for 6 h, under three freeze-thaw cycles and stored at -70°C for 14 days. All stability studies were measured in six replicates.

[4] = parameters: method as in PMID 26771134; details: rat plasma, oral Radix glycyrrhizae or combination of Radix glycyrrhizae and Ramulus cinnamomi; cited from earlier work
[5] = parameters: method as in PMID 25943824; details: active ingredients of TMYX with high R values; cited from earlier work
[6] = parameters: method as in PMID 23608243; details: rat dosed processed Radix polygoni multiflori; cited from earlier work
[7] = high QC: spiked 2000 ng/mL glycyrrhizic acid, 1000 liquiritin, 200 emodin, 100 isoliquiritigenin
[8] = low QC: spiked 20 ng/mL glycyrrhizic acid, 10 liquiritin, 2 emodin, 1 isoliquiritigenin
[9] = medium QC: spiked 200 ng/mL glycyrrhizic acid, 100 liquiritin, 20 emodin, 10 isoliquiritigenin

## CC(C)=CCc1c(O)ccc(-c2coc3cc(O)cc(O)c3c2=O)c1O [licoisoflavone A]
[1]
  proliferation and angiogenesis: promote proliferation and angiogenesis

## CC(C)=CCc1cc(-c2oc3cc(O)c(CC=C(C)C)c(O)c3c(=O)c2O)ccc1O [glyasperin A]
[1]
  proliferation and angiogenesis: promote proliferation and angiogenesis

## CC1(C)[C@@H](O[C@H]2O[C@H](C(=O)O)[C@@H](O)[C@H](O)[C@H]2O[C@@H]2O[C@H](C(=O)O)[C@@H](O)[C@H](O)[C@H]2O)CC[C@]2(C)[C@H]3C(=O)C=C4[C@@H]5C[C@@](C)(C(=O)O)CC[C@]5(C)CC[C@@]4(C)[C@]3(C)CC[C@@H]12 [glycyrrhizic acid]
[2]
  AUC(0-inf): 17300 ± 11000 ng·h/mL
  half-life: 18.2 ± 9.61 h
  AUC: 12700 ± 5060 ng·h/mL
  k el: 1.39e-05 s⁻¹
  peaks in the mean plasma concentration-time profile: double peaks
  C max1: 351.7 ± 347.4 ng/mL
  T max1: 2.13 h and 2.13 ± 1.44 h
  C max2: 476.1 ± 146.0 ng/mL
  T max2: 17.67 h and 17.67 ± 10.31 h
[2]; 48 h after oral TMYX extract 8.3 g/kg
  detection in vivo at 48 h: can still be detected in vivo at 48 h
[3]; [7]
  Measured Concentration, auto-sampler for 12 h: 1884.66 ± 9.26 ng/mL
  Measured Concentration, -70°C for 14 days: 1834.54 ± 29.34 ng/mL
  Measured Concentration, room temperature for 6 h: 2099.10 ± 8.92 ng/mL
  Measured Concentration, three freeze-thaw cycles: 1869.00 ± 42.55 ng/mL
[3]; [8]
  Measured Concentration, auto-sampler for 12 h: 19.25 ± 0.34 ng/mL
  Measured Concentration, -70°C for 14 days: 18.77 ± 0.09 ng/mL
  Measured Concentration, room temperature for 6 h: 20.49 ± 0.79 ng/mL
  Measured Concentration, three freeze-thaw cycles: 19.30 ± 0.20 ng/mL
[3]; [9]
  Measured Concentration, auto-sampler for 12 h: 200.96 ± 3.93 ng/mL
  Measured Concentration, -70°C for 14 days: 200.33 ± 2.98 ng/mL
  Measured Concentration, room temperature for 6 h: 203.22 ± 3.32 ng/mL
  Measured Concentration, three freeze-thaw cycles: 188.63 ± 3.57 ng/mL
[4]
  peaks in plasma concentration-time profile: One peak
[5]
  antiinflammatory effects: exert antiinflammatory effects in a dose-dependent manner

## COc1cc2c(c(OC)c1CC=C(C)C)C(=O)[C@H](c1ccc(O)c(CC=C(C)C)c1O)CO2 [licorisoflavan A]
[1]
  proliferation and angiogenesis: promote proliferation and angiogenesis

## COc1ccc(-c2coc3cc(O[C@@H]4O[C@H](CO)[C@@H](O)[C@H](O)[C@H]4O)ccc3c2=O)cc1 [ononin]
[2]
  AUC(0-inf): 69.4 ± 28.5 ng·h/mL
  half-life: 2.85 ± 1.4 h
  AUC: 58.2 ± 20.2 ng·h/mL
  k el: 0.000103 s⁻¹
  C max1: 14.4 ± 6.8 ng/mL
  T max1: 0.46 ± 0.10 h
[3]; [7]
  Measured Concentration, auto-sampler for 12 h: 195.34 ± 4.30 ng/mL
  Measured Concentration, -70°C for 14 days: 200.23 ± 3.89 ng/mL
  Measured Concentration, room temperature for 6 h: 216.32 ± 0.91 ng/mL
  Measured Concentration, three freeze-thaw cycles: 191.28 ± 2.36 ng/mL
[3]; [8]
  Measured Concentration, auto-sampler for 12 h: 1.83 ± 0.01 ng/mL
  Measured Concentration, -70°C for 14 days: 1.95 ± 0.01 ng/mL
  Measured Concentration, room temperature for 6 h: 2.02 ± 0.03 ng/mL
  Measured Concentration, three freeze-thaw cycles: 1.85 ± 0.01 ng/mL
[3]; [9]
  Measured Concentration, auto-sampler for 12 h: 18.84 ± 0.62 ng/mL
  Measured Concentration, -70°C for 14 days: 18.51 ± 0.15 ng/mL
  Measured Concentration, room temperature for 6 h: 20.57 ± 0.26 ng/mL
  Measured Concentration, three freeze-thaw cycles: 18.71 ± 0.26 ng/mL
[5]
  antiinflammatory effects: exert antiinflammatory effects in a dose-dependent manner

## Cc1cc(O)c2c(c1)C(=O)c1cc(O)cc(O)c1C2=O [emodin]
[2]
  AUC(0-inf): 561 ± 192 ng·h/mL
  half-life: 4.21 ± 2.63 h
  AUC: 476 ± 121 ng·h/mL
  k el: 0.000108 s⁻¹
  C max1: 88.0 ± 37.5 ng/mL
  T max1: 0.32 ± 0.14 h
[3]; [7]
  Measured Concentration, auto-sampler for 12 h: 200.50 ± 11.66 ng/mL
  Measured Concentration, -70°C for 14 days: 185.45 ± 0.98 ng/mL
  Measured Concentration, room temperature for 6 h: 207.49 ± 1.27 ng/mL
  Measured Concentration, three freeze-thaw cycles: 197.74 ± 5.65 ng/mL
[3]; [8]
  Measured Concentration, auto-sampler for 12 h: 1.93 ± 0.02 ng/mL
  Measured Concentration, -70°C for 14 days: 1.86 ± 0.03 ng/mL
  Measured Concentration, room temperature for 6 h: 1.95 ± 0.05 ng/mL
  Measured Concentration, three freeze-thaw cycles: 2.00 ± 0.02 ng/mL
[3]; [9]
  Measured Concentration, auto-sampler for 12 h: 19.88 ± 1.81 ng/mL
  Measured Concentration, -70°C for 14 days: 18.79 ± 0.18 ng/mL
  Measured Concentration, room temperature for 6 h: 21.14 ± 0.99 ng/mL
  Measured Concentration, three freeze-thaw cycles: 19.21 ± 0.33 ng/mL
[6]
  peaks in plasma profile: one peak

## O=C1C[C@@H](c2ccc(O)cc2)Oc2cc(O)ccc21 [liquiritigenin]
[2]
  AUC(0-inf): 333 ± 142 ng·h/mL
  half-life: 12.7 ± 7.04 h
  AUC: 315 ± 130 ng·h/mL
  k el: 0.000139 s⁻¹
  peaks in the mean plasma concentration-time profile: double peaks
  C max1: 37.8 ± 24.1 ng/mL
  T max1: 0.20 h and 0.20 ± 0.07 h
  C max2: 21.0 ± 15.3 ng/mL
  T max2: 7.20 h and 7.20 ± 3.35 h
[3]; [7]
  Measured Concentration, auto-sampler for 12 h: 92.65 ± 0.68 ng/mL
  Measured Concentration, -70°C for 14 days: 91.88 ± 0.86 ng/mL
  Measured Concentration, room temperature for 6 h: 112.69 ± 1.30 ng/mL
  Measured Concentration, three freeze-thaw cycles: 92.59 ± 0.63 ng/mL
[3]; [8]
  Measured Concentration, auto-sampler for 12 h: 0.87 ± 0.01 ng/mL
  Measured Concentration, -70°C for 14 days: 0.88 ± 0.02 ng/mL
  Measured Concentration, room temperature for 6 h: 0.87 ± 0.01 ng/mL
  Measured Concentration, three freeze-thaw cycles: 0.89 ± 0.02 ng/mL
[3]; [9]
  Measured Concentration, auto-sampler for 12 h: 8.63 ± 0.23 ng/mL
  Measured Concentration, -70°C for 14 days: 9.26 ± 0.08 ng/mL
  Measured Concentration, room temperature for 6 h: 10.82 ± 0.58 ng/mL
  Measured Concentration, three freeze-thaw cycles: 8.99 ± 0.07 ng/mL
[4]
  peaks in plasma concentration-time profile: One peak

## COc1c(CC=C(C)C)c(O)cc2oc(=O)c(-c3ccc(O)cc3O)cc12 [glycycoumarin]
[1]
  proliferation and angiogenesis: promote proliferation and angiogenesis

## OC[C@H]1O[C@@H](Oc2c(O)cc(O)cc2/C=C/c2ccc(O)cc2)[C@H](O)[C@@H](O)[C@@H]1O [stilbene glycoside]
[2]
  AUC(0-inf): 298 ± 185 ng·h/mL
  half-life: 1.99 ± 1.31 h
  AUC: 284 ± 189 ng·h/mL
  k el: 0.000125 s⁻¹
  C max1: 99.1 ± 27.1 ng/mL
  T max1: 0.50 ± 0.31 h
[3]; [7]
  Measured Concentration, auto-sampler for 12 h: 182.40 ± 1.23 ng/mL
  Measured Concentration, -70°C for 14 days: 203.34 ± 1.39 ng/mL
  Measured Concentration, room temperature for 6 h: 202.79 ± 12.80 ng/mL
  Measured Concentration, three freeze-thaw cycles: 200.45 ± 2.10 ng/mL
[3]; [8]
  Measured Concentration, auto-sampler for 12 h: 1.89 ± 0.00 ng/mL
  Measured Concentration, -70°C for 14 days: 1.99 ± 0.01 ng/mL
  Measured Concentration, room temperature for 6 h: 1.82 ± 0.01 ng/mL
  Measured Concentration, three freeze-thaw cycles: 2.00 ± 0.03 ng/mL
[3]; [9]
  Measured Concentration, auto-sampler for 12 h: 19.00 ± 0.64 ng/mL
  Measured Concentration, -70°C for 14 days: 20.01 ± 0.31 ng/mL
  Measured Concentration, room temperature for 6 h: 20.88 ± 1.19 ng/mL
  Measured Concentration, three freeze-thaw cycles: 19.87 ± 1.43 ng/mL
[5]
  antiinflammatory effects: exert antiinflammatory effects in a dose-dependent manner
